Patent US9175022B2, “Compounds for the treatment of proliferative disorders” (Synta Pharmaceuticals Corp., priority 2005, dated 2015)

Tests used:
[1] = test system: MES-SA/DX5 (uterine sarcoma); assay: In vitro cytotoxicity, MTS assay, 72 hours; type: cell-based; conditions: Homo sapiens, MES-SA/DX5 multi-drug resistant, read-out: IC50 (concentration required to inhibit 50% tumor cell growth)
Procedure: (§1) The in vitro cytotoxicity of the compounds of the invention was determined in the following human cell lines: HL-60, HL-60-TX1000 (MDR), MES-SA and MES-SA/DX5 (uterine sarcoma). MES-SA is a model of uterine sarcoma, and the cells are sensitive to a number of chemotherapeutic agents including doxorubicin, dactinomycin, mitomycin C, taxol and bleomycin. The MES-SA/Dx5 cell line was established in the presence of increasing concentrations of doxorubicin. […] All cells except HL-60-TX1000 were purchased from ATCC. HL-60, a model of myeloid leukemia, was from ATCC and HL60/TX1000 was a gift from Dr. Bhalla of Emory University School of Medicine. HL-60/TX1000 was isolated in vitro by subculturing HL-60 in progressively higher concentration of Taxol. HL-60/TX1000 cells over-express mdr-1 mRNA and p-glycoprotein, as determined by western blot and immunofluorescence labeling with antiPGP antibodies
(§2) The cell lines were maintained in RPMI1640 (GIBCO) supplemented with 10% FCS, 100 units/mL penicillin, 100 ug/ml streptomycin, and 2 mM L-glutamine. Cells were split every third day and diluted to a concentration of 2×10^5 cells/mL one day before the experiment was performed. All experiments were performed on exponentially growing cell cultures. Cell densities were 2.5×10^4 cells/mL in all experiments.
(§3) Test compounds were prepared by dissolving the compounds at a concentration of 10 mM in 100% DMSO. Final concentrations 10, 1, 0.1, 0.01 and 0.001 μM were obtained by diluting the stock solution directly into the tissue culture medium. Cells were incubated with varying concentrations of test compounds for 72 hours and the IC50 was determined by MTS (i.e. […]) assay. IC50 in this context stands for the concentration of a compound required to inhibit 50% tumor cell growth.

HL-60 = assay: In vitro cytotoxicity, MTS assay, 72 hours; type: cell-based; conditions: Homo sapiens, HL-60, 72 hours, read-out: IC50 (concentration required to inhibit 50% tumor cell growth)
Procedure: as §1, §2, §3

HL-60-TX1000 (MDR) = assay: In vitro cytotoxicity, MTS assay, 72 hours; type: cell-based; conditions: Homo sapiens, HL60/TX1000, HL-60-TX1000 multi-drug resistant, read-out: IC50 (concentration required to inhibit 50% tumor cell growth)
Procedure: as §1, §2, §3

MES-SA = assay: In vitro cytotoxicity, MTS assay, 72 hours; type: cell-based; conditions: Homo sapiens, read-out: IC50 (concentration required to inhibit 50% tumor cell growth)
Procedure: as §1, §2, §3

[2] = test system: CHO-α-tubulin-YFP or MCF7-α-tubulin-YFP cells; assay: Inhibition of tubulin polymerization, tubulin-YFP fluorescence imaging; type: cell-based; conditions: living or fixed cells, fluorescence microscopy
Source text: Wild-type Chinese Hamster Ovary cells (WT CHO) cells are maintained in Ham's F-12 medium supplemented with 10% fetal bovine serum (FBS; HyClone, Logan, Utah). Cells of low density (−20%) growing on 2-well chambered cover-slips (Labtek (Campbell, Calif.) or Fisher Scientific) are transfected with a mammalian expression vector encoding α-tubulin-YFP (Clontech, Palo Alto, Calif.) with the use of FuGENE 6 (Roche Molecular Biochemicals, Indianapolis, Ind.), according to the manufacturer's instructions. Twenty-four hours after transfection, the cells are cultured in 400 μg/ml G418 (Invitrogen, Carlsbad, Calif.)-containing selection medium for 2 weeks. Living cells are examined using a fluorescent microscope for α-tubulin-YFP expression. […] Expressed tubulin-YFP is detected as a single band in Western blots. […]
CHO-α-tubulin-YFP or MCF7-α-tubulin-YFP cells are cultured in 2-well chambered cover-slips (Labtek (Campbell, Calif.) or Fisher Scientific) for 24 hours before treatment with a compound of the invention. […] Tubulin-YFP fluorescence in living cells or fixed cells is captured using a standard filter for FITC and objectives of 20× or 60× magnification on a Nikon TE300 microscope with a Leica DC50 color digital camera (Leica, Bannockburn, Ill.) or a CoolSnap HQ monochrome CCD camera (Photonetrics, Tucson, Ariz.). […]

CV-1 cells = assay: Microtubule disruption in cells resistant to colchicine and vincristine; type: cell-based; conditions: 500 nM; 24, 48 and 72 hr
Procedure: The effects of compounds of the invention on microtubules can be studied in CV-1 cells. The microtubules of CV-1 cells are known to be resistant to the depolymerizing effects of colchicine and vincristine. CV-1 cells are treated with 500 nM of a compound of the invention, or vincristine or colchicines. At 24, 48 and 72 hr the cells are fixed and stained to examine microtubule structure. In cells treated with compounds of the invention, microtubule structures are expected to be diminished compared to untreated cells.

[3] = test system: MDA-MB-435S melanoma cells or RERF-LC-AI lung tumor cells; assay: Anti-tumor activity in nude mouse xenograft models; type: in vivo; conditions: i.v.
Procedure: The human tumor cell line, MDA-MB-435S (ATCC #HTB-129; G. Ellison, et al., Mol. Pathol. 55:294-299, 2002), is obtained from the American Type Culture Collection (ATCC; Manassas, Va., USA). The human tumor cell line, RERF-LC-AI (RCB0444; S. Kyoizumi, et al., Cancer. Res. 45:3274-3281, 1985), is obtained from the Riken Cell Bank (RCB; Tsukuba, Ibaraki, Japan). The cell lines are cultured in growth media prepared from 50% Dulbecco's Modified Eagle Medium (high glucose), 50% RPMI Media 1640, 10% fetal bovine serum (FBS), 1% 100×L-glutamine, 1% 100× Penicillin-Streptomycin, 1% 100× sodium pyruvate and 1% 100×MEM non-essential amino acids. FBS is obtained from ATCC and all other reagents are obtained from Invitrogen Corp. (Carlsbad, Calif., USA). […] The supernatant is aspirated and the cell pellet is resuspended in 10 mL of growth media and the cell number is determined using a hemocytometer. […]
Tumors are then permitted to develop in vivo until they reached approximately 100-200 mm^3 in volume, which typically required 2-3 weeks following implantation. Tumor volumes (V) are calculated by caliper measurement of the width (W), length (L) and thickness (T) of tumors using the following formula: V=0.5326×(L×W×T). […]

Compound	IC50 [1]	IC50 (HL-60)	IC50 (HL-60-TX1000 (MDR))	IC50 (MES-SA)	tubulin-YFP labeled microtubule pattern [2]	microtubule structure (CV-1 cells)	overt toxicity (effect on body weights) ([3]; nude mice)	tumor growth ([3]; 3 days per week, 9-10 doses, compounds 6.25, 12.5 and 25 mg/kg, paclitaxel 7.5 mg/kg)
CC(=O)O[C@H]1C(=O)[C@@]2(C)[C@H]([C@H](OC(=O)c3ccccc3)[C@]3(O)C[C@H](OC(=O)[C@H](O)[C@@H](NC(=O)c4ccccc4)c4ccccc4)C(C)=C1C3(C)C)[C@]1(OC(C)=O)CO[C@@H]1C[C@@H]2O [Taxol, paclitaxel, reference compound]	5000 nM	2 nM	1000 nM	5 nM	microtubule bundle formation			
COc1cc2c(c(OC)c1OC)-c1ccc(OC)c(=O)cc1[C@@H](NC(C)=O)CC2 [colchicines, colchicine]						Disorganized but clear microtubule structures		
COc1ccc(-c2cnnn2-c2cc(OC)c(OC)c(OC)c2)cc1 [Compound 3, 1-(3,4,5-trimethoxy-phenyl)-5-(4-methoxy-phenyl)-1H-[1,2,3]triazole]	37 nM	53 nM	20 nM	52 nM			minimal	
CC(=O)O[C@H]1C(=O)[C@@]2(C)[C@H]([C@H](OC(=O)c3ccccc3)[C@]3(O)C[C@H](OC(=O)[C@H](O)[C@@H](NC(=O)c4ccccc4)c4ccccc4)C(C)=C1C3(C)C)[C@]1(OC(C)=O)CO[C@@H]1C[C@@H]2O [paclitaxel, reference compound]								decreased tumor growth
COc1cc(-n2nncc2-c2ccc(N(C)C)cc2)cc(OC)c1OC [Compound 5, 1-(3,4,5-trimethoxy-phenyl)-5-[4-(N,N-dimethylamino)-phenyl]-1H-[1,2,3]triazole]	29 nM	41.5 nM	7.5 nM	68.5 nM				
CC[C@]1(O)C[C@H]2CN(CCc3c([nH]c4ccccc34)[C@@](C(=O)OC)(c3cc4c(cc3OC)N(C=O)[C@H]3[C@@](O)(C(=O)OC)[C@H](OC(C)=O)[C@]5(CC)C=CCN6CC[C@]43[C@@H]65)C2)C1 [vincristine, Vincristine]						Disorganized but clear microtubule structures		
